In US5646164A, “α-methylene-γ-butyrolactones: new inhibitors of platelet aggregation” (National Science Council, priority 1995, dated 1997):
≈ marks a conversion by molar mass, not a printed value.

How the values were obtained:
Type in all cases: cell-based
[1] = test system: platelet aggregation induced by thrombin (Thr) in washed rabbit platelets; experiment: Inhibition of thrombin-induced aggregation of washed rabbit platelets (turbidimetry, Lumi-aggregometer); conditions: Oryctolagus cuniculus, Thr 0.1 U/ml; for activity at 100 µg/mL: 0.05 h, compound 100 μg/ml, preincubated at 37° for 3 min, mean ± SEM (n)
Protocol: (§1) The pharmacological activity of these compounds were determined according to G.V.R. Born by turbidimetry (J. Physiol., 1963, 168, 178). Based on the method, samples were suspended in rabbit platelets which were washed with platelet-rich plasma, the aggregation was then counted by the Lumi-aggregometer (Model 1020, Paytoon, Canada). Formula (I-III) at the concentration of 100 μg/ml are found to inhibit the platelet aggregation perfectly which was induced by arachidonic acid (AA), collagen, ADP, and PAF. Since the structures of these compounds are different from those of known antiplatelet agents, the present invention have the potential for further development.
1. Bovine thrombin, from the Parke Davis Co., was dissolved in 50% (v/v) glycerol for a stock solution of 100 NIH units/mL.
(§2) Platelet suspension was prepared from EDTA-anticoagulated Platelet-rich plasma according to washing procedures described previously (Teng, C. M. et. al., Thromb Haemost 59, 304, 1991). Platelets were counted by Hemalaser 2 (Sebia, France) and adjusted to a concentration of 4.5×10^8 platelets/mL. Platelet pellets were finally suspended in Tyrode's buffer (pH 7.4) of the following composition: NaCl (136.8 mM), KCl (2.8 mM), NaHCO3 (11.9 mM), MgCl2 (2.1 mM), NaH2 PO4 (0.33 mM), CaCl2 (1 mM), glucose (11.2 mM) containing 0.35% bovine serum albumin.
(§3) Aggregation was measured by the turbidimetry method as described by O'Brien (J Clin Pathol 15, 452, 1962). ATP released from platelets was detected by the bioluminescence method of DeLuca and McElory (Methods Enzymol 57, 3, 1978). Both aggregation and ATP release were measured simultaneously in a Lumi-aggregometer (model 1020B, Payton, Canada) connected to two dt/al-channel recorders. Platelet preparations were stirred at 900 rpm. When DMSO was used as solvent, its final concentration was fixed at 0.5% (v/v) to eliminate the effect of the solvent. For the calculation of percentage aggregation, the absorbance of platelet suspension was designated as 0% aggregation and the absorbance of platelet-free Tyrode's solution as 100% aggregation. The antiplatelet effects were shown in Table 1 and the inhibitory concentrations for 50% aggregation (IC50) were expressed in Table 2.

[2] = test system: platelet aggregation induced by arachidonic acid (AA) in washed rabbit platelets; experiment: Inhibition of arachidonic acid-induced aggregation of washed rabbit platelets (turbidimetry, Lumi-aggregometer); conditions: Oryctolagus cuniculus; for activity at 100 µg/mL: 0.05 h, AA 100 μM, compound 100 μg/ml, preincubated at 37° for 3 min, mean ± SEM (n); for IC50: AA 100 μg/ml
Protocol: as §1
4. AA (arachidonic acid), purchased from Sigma, was dissolved in deionized water.
as §2, §3

[3] = test system: platelet aggregation induced by collagen (Col) in washed rabbit platelets; experiment: Inhibition of collagen-induced aggregation of washed rabbit platelets (turbidimetry, Lumi-aggregometer); conditions: Oryctolagus cuniculus, Col 10 μg/ml; for activity at 100 µg/mL: 0.05 h, compound 100 μg/ml, preincubated at 37° for 3 min, mean ± SEM (n)
Protocol: as §1
2. Collagen (type I: bovine Achilles tendon), from the Sigma Chemical Co., was homogenized in 25 mM acetic acid and stored (1 mg/mL) at -70° C.
as §2, §3

[4] = test system: platelet aggregation induced by platelet-activating factor (PAF) in washed rabbit platelets; experiment: Inhibition of PAF-induced aggregation of washed rabbit platelets (turbidimetry, Lumi-aggregometer); conditions: Oryctolagus cuniculus, PAF 2 nM
Protocol: as §1
3. PAF (1-O-alkyl-2-acetyl-sn-glycerol-3-phosphorylcholine), purchased from Sigma, was dissolved in chloroform and diluted into 0.1% BSA-saline solution immediately prior to use.
as §2, §3

IC50 [1]	IC50 [3]	IC50 [4]	IC50 [2]	Compound	activity at 100 µg/mL [1]	activity at 100 µg/mL [2]	activity at 100 µg/mL [3]
14.9 µg/mL (≈ 43.1 µM)	5.76 µg/mL (≈ 16.7 µM)	10.5 µg/mL (≈ 30.5 µM)	–	C=C1CC(COc2cccc3ccc(C)nc23)(c2ccccc2)OC1=O (stereo not shown) [Compound 11, 8-[(2,3,4,5-Tetrahydro-4-methylene-5-oxo-2-phenyl-2-furanyl)methoxy]-2-methylquinoline]	0%	0%	0%
13.7 µg/mL (≈ 37.4 µM)	5.17 µg/mL (≈ 14.1 µM)	12.4 µg/mL (≈ 33.8 µM)	–	C=C1CC(COc2cccc3cccnc23)(c2ccc(Cl)cc2)OC1=O (stereo not shown) [Compound 9, 8-[(2-(p-Chlorophenyl)-2,3,4,5-tetrahydro-4-methylene-5-oxo-2-furanyl)methoxy]quinoline]	0%	0%	0%
–	–	–	10.5 µg/mL (≈ 36.9 µM)	C=C1CC(C)(COc2cccc3ccc(=O)[nH]c23)OC1=O (stereo not shown) [Compound 5, 8-[(2,3,4,5-Tetrahydro-2-methyl-4-methylene-5-oxo-2-furanyl)methoxy]-2(1H)-quinolinone]	25.9 ± 0.7%	0%	0%
> 50 µg/mL	16.2 µg/mL (≈ 57.3 µM)	39.6 µg/mL (≈ 140 µM)	–	C=C1CC(C)(COc2cccc3ccc(C)nc23)OC1=O (stereo not shown) [Compound 10, 8-[(2,3,4,5-Tetrahydro-2-methyl-4-methylene-5-oxo-2-furanyl)methoxy]-2-methylquinoline]	0%	0%	0%
15.8 µg/mL (≈ 47.6 µM)	4.76 µg/mL (≈ 14.4 µM)	11.1 µg/mL (≈ 33.6 µM)	–	C=C1CC(COc2cccc3cccnc23)(c2ccccc2)OC1=O (stereo not shown) [Compound 8, 8-[(2,3,4,5-Tetrahydro-4-methylene-5-oxo-2-phenyl-2-furanyl)methoxy]quinoline]	0%	0%	0%
> 50 µg/mL	> 50 µg/mL	> 50 µg/mL	> 50 µg/mL	C=C1CC(C)(COc2cc(=O)oc3ccccc23)OC1=O (stereo not shown) [Compound 1, 4-[(2,3,4,5-Tetrahydro-2-methyl-4-methylene-5-oxo-2-furanyl)methoxy]-2H-1-benzopyran-2-one]	74.4 ± 9.6%	23.3 ± 12.6%	8.5 ± 6.9%
–	–	5.7 µg/mL (≈ 16.4 µM)	1.27 µg/mL (≈ 3.65 µM)	C=C1CC(COc2ccc3ccc(=O)oc3c2)(c2ccccc2)OC1=O (stereo not shown) [Compound 4, 7-[(2,3,4,5-Tetrahydro-4-methylene-5-oxo-2-Phenyl-2-furanyl)methoxy]-2H-1-benzopyran-2-one]	0%	0%	0%

Further lines, the compound ahead of its results:

Compound	IC50 [1]	IC50 [3]	IC50 [4]	IC50 [2]	activity at 100 µg/mL [1]	activity at 100 µg/mL [2]	activity at 100 µg/mL [3]
C=C1CC(C)(COc2cccc3cccnc23)OC1=O (stereo not shown) [Compound 7, 8-[(2,3,4,5-Tetrahydro-2-methyl-4-methylene-5-oxo-2-furanyl)methoxy]quinoline]	> 50 µg/mL	27.2 µg/mL (≈ 101 µM)	47.9 µg/mL (≈ 178 µM)	–	17.4 ± 7.9%	0%	0%
C=C1CC(COc2cccc3ccc(=O)[nH]c23)(c2ccccc2)OC1=O (stereo not shown) [Compound 6, 8-[(2,3,4,5-Tetrahydro-4-methylene-5-oxo-2-phenyl-2-furanyl)methoxy]-2(1H)-quinolinone]	> 50 µg/mL	–	> 50 µg/mL	8.3 µg/mL (≈ 23.9 µM)	54.3 ± 1.3%	0%	0%
C=C1CC(COc2cccc3ccc(C)nc23)(c2ccc(Cl)cc2)OC1=O (stereo not shown) [Compound 12, 8-[(2-(p-Chlorophenyl)-2,3,4,5-tetrahydro-4-methylene-5-oxo-2-furanyl)methoxy]-2-methylquinoline]	–	–	10.8 µg/mL (≈ 28.5 µM)	–	0%	0%	0%
C=C1CC(C)(COc2ccc3ccc(=O)oc3c2)OC1=O (stereo not shown) [Compound 3, 7-[(2,3,4,5-Tetrahydro-2-methyl-4-methylene-5-oxo-2-furanyl)methoxy]-2H-1-benzopyran-2-one]	> 50 µg/mL	–	> 50 µg/mL	26.1 µg/mL (≈ 91.1 µM)	22.8 ± 6.6%	0%	0%
C=C1CC(COc2cc(=O)oc3ccccc23)(c2ccccc2)OC1=O (stereo not shown) [Compound 2, 4-[(2,3,4,5-Tetrahydro-4-methylene-5-oxo-2-phenyl-2-furanyl)methoxy]-2H-1-benzopyran-2-one]	–	–	36 µg/mL (≈ 103 µM)	2.86 µg/mL (≈ 8.21 µM)	0%	0%	0%
